In brackets after ≈: the same amount, converted by molar mass.
Assay: physchem
Details: aqueous with cosolvent or surfactant or cyclodextrin

solubility: ~50 µg/mL (≈ 93.1 µM)
Compound: CC1=C(/C=C/C(C)=C/C=C/C(C)=C/C=C/C=C(C)/C=C/C=C(C)/C=C/C2=C(C)CCCC2(C)C)C(C)(C)CCC1 [β-carotene]

From patent US9943490B2, “Composite flash-precipitated nanoparticles” (The Trustees of Princeton University, priority 2008, dated 2018)
